Experimental data as given in ChEMBL document CHEMBL4828722, “The synthesis and bioactivity of pyrrolo[2,3-d]pyrimidine derivatives as tyrosine kinase inhibitors for NSCLC cells with EGFR mutations” (Eur J Med Chem, 2021).

Assays:
[1] = Potency index, ratio of avitinib IC50 to test compound IC50 for cytotoxicity against human BEAS-2B cells assessed as reduction in cell viability measured after 48 hrs by CCK8 assay; format: cell-based; conditions: read-out: Ratio IC50
[2] = Potency index, ratio of avitinib IC50 to test compound IC50 for cytotoxicity against human HBE cells assessed as reduction in cell viability measured after 48 hrs by CCK8 assay; format: cell-based; conditions: read-out: Ratio IC50
[3] = Selectivity index, ratio of IC50 for cytotoxicity against human HBE cells to IC50 for cytotoxicity against human HCC827 cells harboring EGFR del E746-A750 mutant assessed as reduction in cell viability measured after 48 hrs by CCK8 assay

With C=CC(=O)Nc1cccc(Oc2nc(Nc3ccc(N4CCN(C)CC4)c(N)c3)nc3[nH]ccc23)c1 the selectivity ratio at 48 h [1] was 2, the selectivity ratio at 48 h [2] was 2 and the “Selectivity Index” value [3] was 493.
